We go through 2 substances from patent publication US12618062B2, “Display of molecules on silently genetically encoded nanoscale carriers for determining synergistic molecular interactions” (The Governors of the University of Alberta, priority 2017, dated 2026).

The target in this test is T1, Ulex Europaeus Agglutinin (UEA lectin) (Ulex europaeus, UniProt P22972).
T1 sequence (P22972 1-243): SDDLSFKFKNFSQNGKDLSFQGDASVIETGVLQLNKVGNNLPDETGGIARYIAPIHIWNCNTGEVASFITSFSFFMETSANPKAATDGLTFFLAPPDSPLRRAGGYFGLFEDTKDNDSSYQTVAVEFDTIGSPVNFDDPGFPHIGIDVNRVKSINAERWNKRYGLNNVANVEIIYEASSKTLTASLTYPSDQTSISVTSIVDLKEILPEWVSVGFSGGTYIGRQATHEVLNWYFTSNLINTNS
In words: Pull-down of liquid glycan array and deep sequencing. Format: binding. To be noted: array of 74 glycans; FIG. 6H. The text has this:
The washing step was repeated three times.

Turning to “GalNAcα1-3 [Fucα1-2]Galβ1-4G1cNAcβ-Phage [Te222]”, the “Enrichment in pull down by plant lectin UGA” value is “enrichment not detected”.

In the case of “Fucα1-2Galb1-4[Fucα1-3]GlcNAcb-Phage [Te118]”, the “Enrichment in pull down by plant lectin UGA” value is recorded as “enrichment not detected”.
